{
  "source": "paper PMC8528214",
  "about": "(RSC Medicinal Chemistry, 2021)",
  "key": {"[1]": {"tested_on": "collagenase H (ColH)", "conditions": "cited from earlier work; for ColH inhibitory activity: tested in their thiocarbamate form"}, "[2]": {"target": "T1, MMP-7 (Homo sapiens, UniProt P09237)", "T1 sequence (P09237 95-267)": "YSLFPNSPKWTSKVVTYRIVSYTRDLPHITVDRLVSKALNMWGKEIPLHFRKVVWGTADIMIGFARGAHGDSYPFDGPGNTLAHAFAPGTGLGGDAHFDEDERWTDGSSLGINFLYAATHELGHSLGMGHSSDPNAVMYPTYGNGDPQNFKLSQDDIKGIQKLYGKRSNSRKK", "experiment": "MMP in vitro inhibition assay, MMP-7", "type": "biochemical"}, "[3]": {"tested_on": "HEK293", "conditions": "at 100 μM; cited from earlier work"}, "[4]": {"target": "MMP-3 (Homo sapiens, UniProt P08254)", "sequence (P08254 100-477)": "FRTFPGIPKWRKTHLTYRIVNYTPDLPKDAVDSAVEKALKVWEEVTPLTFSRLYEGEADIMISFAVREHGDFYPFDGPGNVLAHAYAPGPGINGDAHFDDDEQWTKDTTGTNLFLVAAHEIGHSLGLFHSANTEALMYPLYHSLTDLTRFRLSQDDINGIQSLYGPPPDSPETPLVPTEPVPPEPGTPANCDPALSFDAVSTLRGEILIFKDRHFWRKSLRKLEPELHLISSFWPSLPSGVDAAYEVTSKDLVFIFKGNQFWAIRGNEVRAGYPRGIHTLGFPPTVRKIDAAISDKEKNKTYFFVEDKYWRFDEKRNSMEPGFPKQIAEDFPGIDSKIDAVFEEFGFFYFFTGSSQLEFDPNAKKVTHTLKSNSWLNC", "experiment": "MMP in vitro inhibition assay, MMP-3", "type": "biochemical"}, "[5]": {"target": "MMP-14 (Homo sapiens, UniProt P50281)", "experiment": "MMP in vitro inhibition assay, MMP-14", "type": "biochemical"}, "[6]": {"tested_on": "HepG2", "conditions": "at 100 μM; cited from earlier work"}, "[7]": {"target": "T2, HDAC-8 (Homo sapiens, UniProt Q9BY41)", "T2 sequence (Q9BY41 1-377)": "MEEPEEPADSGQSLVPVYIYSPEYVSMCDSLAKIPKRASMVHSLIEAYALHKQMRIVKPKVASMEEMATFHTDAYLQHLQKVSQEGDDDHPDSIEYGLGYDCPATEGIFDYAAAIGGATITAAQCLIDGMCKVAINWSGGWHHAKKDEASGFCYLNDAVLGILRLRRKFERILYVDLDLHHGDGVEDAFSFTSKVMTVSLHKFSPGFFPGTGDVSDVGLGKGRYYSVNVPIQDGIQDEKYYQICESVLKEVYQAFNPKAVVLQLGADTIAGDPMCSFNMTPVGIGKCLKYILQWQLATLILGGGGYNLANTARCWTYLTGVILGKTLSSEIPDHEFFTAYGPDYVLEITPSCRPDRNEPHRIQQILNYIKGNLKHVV", "experiment": "HDAC in vitro inhibition assay", "type": "biochemical"}, "[8]": {"tested_on": "A549", "conditions": "at 100 μM; cited from earlier work"}, "[9]": {"target": "HDAC-3 (Homo sapiens, UniProt O15379)", "sequence (O15379 whole entry)": "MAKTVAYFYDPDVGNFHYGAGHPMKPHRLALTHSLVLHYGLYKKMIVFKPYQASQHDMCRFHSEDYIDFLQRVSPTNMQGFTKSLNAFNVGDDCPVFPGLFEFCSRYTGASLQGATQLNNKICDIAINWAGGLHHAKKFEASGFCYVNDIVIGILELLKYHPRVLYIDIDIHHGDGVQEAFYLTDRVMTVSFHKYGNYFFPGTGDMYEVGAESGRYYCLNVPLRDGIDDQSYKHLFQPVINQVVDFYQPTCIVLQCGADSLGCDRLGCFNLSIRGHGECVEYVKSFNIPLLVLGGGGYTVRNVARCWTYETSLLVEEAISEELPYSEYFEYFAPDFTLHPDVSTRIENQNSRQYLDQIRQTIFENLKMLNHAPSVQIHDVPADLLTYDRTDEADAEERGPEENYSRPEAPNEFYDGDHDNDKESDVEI", "sequence (Q9Y618 395-489 partner limits assumed)": "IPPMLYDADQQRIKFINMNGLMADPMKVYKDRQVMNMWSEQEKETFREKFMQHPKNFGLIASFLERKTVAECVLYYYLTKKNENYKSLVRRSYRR", "type": "biochemical"}, "[10]": {"tested_on": "zebrafish embryos", "conditions": "cited from earlier work"}, "[11]": {"target": "T3, MMP-2 (Homo sapiens, UniProt P08253)", "T3 sequence (P08253 110-660)": "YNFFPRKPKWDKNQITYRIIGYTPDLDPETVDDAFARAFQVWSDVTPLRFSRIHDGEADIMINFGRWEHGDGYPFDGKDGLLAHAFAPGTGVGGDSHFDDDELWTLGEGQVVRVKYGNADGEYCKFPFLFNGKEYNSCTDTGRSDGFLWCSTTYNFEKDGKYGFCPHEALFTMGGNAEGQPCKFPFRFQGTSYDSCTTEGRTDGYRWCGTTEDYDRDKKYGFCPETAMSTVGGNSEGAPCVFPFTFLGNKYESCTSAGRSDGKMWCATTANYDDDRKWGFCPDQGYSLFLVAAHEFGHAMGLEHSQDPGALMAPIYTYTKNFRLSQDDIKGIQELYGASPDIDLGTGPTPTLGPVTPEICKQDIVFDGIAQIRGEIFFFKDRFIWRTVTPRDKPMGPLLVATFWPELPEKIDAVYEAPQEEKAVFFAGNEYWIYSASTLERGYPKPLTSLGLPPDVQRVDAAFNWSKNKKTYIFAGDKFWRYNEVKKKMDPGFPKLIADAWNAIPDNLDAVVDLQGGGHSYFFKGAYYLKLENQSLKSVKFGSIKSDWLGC", "experiment": "MMP in vitro inhibition assay, MMP-2", "type": "biochemical"}, "[12]": {"target": "MMP-8 (Homo sapiens, UniProt P22894)", "sequence (P22894 101-467)": "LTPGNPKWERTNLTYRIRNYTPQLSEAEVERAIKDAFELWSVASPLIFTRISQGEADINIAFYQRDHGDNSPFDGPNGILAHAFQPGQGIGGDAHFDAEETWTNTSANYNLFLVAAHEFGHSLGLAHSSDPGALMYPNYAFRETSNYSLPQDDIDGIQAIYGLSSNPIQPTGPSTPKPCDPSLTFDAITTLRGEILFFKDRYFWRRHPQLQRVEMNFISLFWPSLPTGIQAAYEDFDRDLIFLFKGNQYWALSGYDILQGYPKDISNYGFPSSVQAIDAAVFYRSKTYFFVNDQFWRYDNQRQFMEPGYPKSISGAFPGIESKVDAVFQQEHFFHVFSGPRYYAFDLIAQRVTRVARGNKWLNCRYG", "experiment": "MMP in vitro inhibition assay, MMP-8", "type": "biochemical"}, "[13]": {"target": "T4, MMP-1 (Homo sapiens, UniProt P03956)", "T4 sequence (P03956 100-469)": "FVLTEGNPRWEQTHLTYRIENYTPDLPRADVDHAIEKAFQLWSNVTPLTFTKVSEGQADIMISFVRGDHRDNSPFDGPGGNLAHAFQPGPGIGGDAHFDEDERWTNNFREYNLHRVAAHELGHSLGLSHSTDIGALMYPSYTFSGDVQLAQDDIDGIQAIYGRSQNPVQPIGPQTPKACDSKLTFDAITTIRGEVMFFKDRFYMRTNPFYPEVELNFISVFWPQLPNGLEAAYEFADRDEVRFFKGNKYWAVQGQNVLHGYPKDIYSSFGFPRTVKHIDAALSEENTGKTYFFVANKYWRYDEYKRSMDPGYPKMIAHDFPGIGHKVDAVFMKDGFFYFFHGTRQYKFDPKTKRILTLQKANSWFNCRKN", "experiment": "MMP in vitro inhibition assay, MMP-1", "type": "biochemical"}, "[14]": {"tested_on": "Galleria mellonella larvae infection model", "conditions": "cited from earlier work"}, "[15]": {"tested_on": "NDM-1-expressing K. pneumoniae (T2301)", "experiment": "Growth inhibition assay", "conditions": "imipenem alone at 8 μg mL−1 (0.5× MIC)"}},
  "data": [
    {"smiles": "CC(=O)c1ccc(NC(=O)CS)cc1", "note": "[Compound 28]", "values": [
      {"measurement": "ColH inhibitory potency", "setting": "[1]", "result": "nanomolar"}
    ]},
    {"smiles": "O=C(CS)Nc1ccc(Cl)c(Cl)c1", "note": "[Compound 1]", "values": [
      {"measurement": "inhibition at 100 μM, MMP-7", "setting": "[2]; 100 μM", "result": "no inhibition"},
      {"measurement": "inhibition at 100 µM", "setting": "[2]; read-out: inhibition at 100 μM, MMP-7", "result": "≤ 10", "unit": "%"},
      {"measurement": "cytotoxicity against HEK293", "setting": "[3]", "result": "did not show any cytotoxicity"},
      {"measurement": "inhibition at 100 μM, MMP-3", "setting": "[4]; 100 μM", "result": "no inhibition"},
      {"measurement": "inhibition at 100 µM", "setting": "[4]; read-out: inhibition at 100 μM, MMP-3", "result": "≤ 10", "unit": "%"},
      {"measurement": "inhibition at 100 μM, MMP-14", "setting": "[5]; 100 μM", "result": "no inhibition"},
      {"measurement": "inhibition at 100 µM", "setting": "[5]; read-out: inhibition at 100 μM, MMP-14", "result": "≤ 10", "unit": "%"},
      {"measurement": "cytotoxicity against HepG2", "setting": "[6]", "result": "did not show any cytotoxicity"},
      {"measurement": "inhibition at 100 μM, HDAC-8", "setting": "[7]", "result": "no inhibition"},
      {"measurement": "cytotoxicity against A549", "setting": "[8]", "result": "did not show any cytotoxicity"},
      {"measurement": "inhibition at 100 μM, HDAC-3", "setting": "[9]", "result": "no inhibition"},
      {"measurement": "maximum tolerated concentration (MTC)", "setting": "[10]", "result": 10, "unit": "µM"},
      {"measurement": "inhibition at 100 μM, MMP-2", "setting": "[11]; 100 μM", "result": "no inhibition"},
      {"measurement": "inhibition at 100 µM", "setting": "[11]; read-out: inhibition at 100 μM, MMP-2", "result": "≤ 10", "unit": "%"},
      {"measurement": "inhibition at 100 μM, MMP-8", "setting": "[12]; 100 μM", "result": "no inhibition"},
      {"measurement": "inhibition at 100 µM", "setting": "[12]; read-out: inhibition at 100 μM, MMP-8", "result": "≤ 10", "unit": "%"},
      {"measurement": "inhibition at 100 μM, MMP-1", "setting": "[13]; 100 μM", "result": "no inhibition"},
      {"measurement": "inhibition at 100 µM", "setting": "[13]; read-out: inhibition at 100 μM, MMP-1", "result": "≤ 10", "unit": "%"},
      {"measurement": "in vivo efficacy", "setting": "[14]", "result": "in vivo efficacy"},
      {"measurement": "ColH inhibitory activity", "setting": "[1]", "result": "micromolar activities"}
    ]},
    {"smiles": "O=C(CS)Nc1ccccc1Cl", "note": "[Compound 26]", "values": [
      {"measurement": "ColH inhibitory activity", "setting": "[1]", "result": "micromolar activities"}
    ]},
    {"smiles": "C[C@@H](O)[C@H]1C(=O)N2C(C(=O)O)=C(SCCNC=N)C[C@H]12", "note": "[imipenem]", "values": [
      {"measurement": "Growth of imipenem-treated bacteria vs imipenem-free control after 24 hours", "setting": "[15]", "result": "no relevant differences"}
    ]}
  ]
}
